Data from patent US8901133B2, “Heterocyclic compounds and uses thereof” (Infinity Pharmaceuticals, Inc., priority 2010, dated 2014).
Each block holds one compound with its values, some of them ahead of it.

How the values were obtained:
Type in all cases: biochemical
[1] = target: T1, PI3Kγ (Homo sapiens, UniProt P48736); assay: PI3 Kinase HTRF assay, PI3Kγ; conditions: 10 μM PIP2, 10 μM ATP; read-out: PI3K γ IC50
T1 construct: purchased Millipore Corporation 14-558-K
Excerpt: (§1) A PI3 Kinase HTRF® assay kit (cat No. 33-016) purchased from Millipore Corporation was used to screen compounds disclosed herein. This assay used specific, high affinity binding of the GRP1 pleckstrin homology (PH) domain to PIP3, the product of a Class 1A or 1B PI3 Kinase acting on its physiological substrate PIP2. During the detection phase of the assay, a complex was generated between the GST-tagged PH domain and biotinylated short chain PIP3. The biotinylated PIP3 and the GST-tagged PH domain recruited fluorophores (Streptavidin-Allophycocyanin and Europium-labeled anti-GST respectively) to form the fluorescence resonance energy transfer (FRET) architecture, generating a stable time-resolved FRET signal. The FRET complex was disrupted in a competitive manner by non-biotinylated PIP3, a product formed in the PI3 Kinase assay.
(§2) PI3 Kinase α, β, γ and δ activity was assayed using the PI3 Kinase HTRF® assay kit (catalogue No. 33-016) purchased from Millipore Corporation. Purified recombinant PI3Kα (catalogue No. 14-602-K), PI3Kβ (catalogue No. 14-603-K), PI3Kγ (catalogue No. 14-558-K) and PI3Kδ (catalogue No. 14-604-K) were obtained from Millipore Corporation. Purified recombinant PI3K enzyme was used to catalyze the phosphorylation of phosphatidylinositol 4,5-bisphosphate (PIP2 at 10 μM) to phosphatidylinositol 3,4,5-trisphosphate (PIP3) in the presence of 10 μM ATP. The assay was carried out in 384-well format and detected using a Perkin Elmer En Vision Xcite Multilabel Reader. Emission ratios were converted into percent inhibitions and imported into GraphPad Prism software. The concentration necessary to achieve inhibition of enzyme activity by 50% (IC50) was calculated using concentrations ranging from 20 μM to 0.1 nM (12-point curve). IC50 values were determined using a nonlinear regression model available in GraphPad Prism 5. […]

[2] = target: T2, PI3Kα (Homo sapiens, UniProt P42336); assay: PI3 Kinase HTRF assay, PI3Kα; conditions: 10 μM PIP2, 10 μM ATP; read-out: PI3K α IC50
T2 construct: purchased Millipore Corporation 14-602-K
Excerpt: as §1, §2

[3] = target: T3, PI3Kδ (Homo sapiens, UniProt O00329); assay: PI3 Kinase HTRF assay, PI3Kδ; conditions: 10 μM PIP2, 10 μM ATP; read-out: PI3K δ IC50
T3 construct: purchased Millipore Corporation 14-604-K
Excerpt: as §1, §2

[4] = target: T4, PI3Kβ (Homo sapiens, UniProt P42338); assay: PI3 Kinase HTRF assay, PI3Kβ; conditions: 10 μM PIP2, 10 μM ATP; read-out: PI3K β IC50
T4 construct: purchased Millipore Corporation 14-603-K
Excerpt: as §1, §2

T1 sequence (P48736 whole entry): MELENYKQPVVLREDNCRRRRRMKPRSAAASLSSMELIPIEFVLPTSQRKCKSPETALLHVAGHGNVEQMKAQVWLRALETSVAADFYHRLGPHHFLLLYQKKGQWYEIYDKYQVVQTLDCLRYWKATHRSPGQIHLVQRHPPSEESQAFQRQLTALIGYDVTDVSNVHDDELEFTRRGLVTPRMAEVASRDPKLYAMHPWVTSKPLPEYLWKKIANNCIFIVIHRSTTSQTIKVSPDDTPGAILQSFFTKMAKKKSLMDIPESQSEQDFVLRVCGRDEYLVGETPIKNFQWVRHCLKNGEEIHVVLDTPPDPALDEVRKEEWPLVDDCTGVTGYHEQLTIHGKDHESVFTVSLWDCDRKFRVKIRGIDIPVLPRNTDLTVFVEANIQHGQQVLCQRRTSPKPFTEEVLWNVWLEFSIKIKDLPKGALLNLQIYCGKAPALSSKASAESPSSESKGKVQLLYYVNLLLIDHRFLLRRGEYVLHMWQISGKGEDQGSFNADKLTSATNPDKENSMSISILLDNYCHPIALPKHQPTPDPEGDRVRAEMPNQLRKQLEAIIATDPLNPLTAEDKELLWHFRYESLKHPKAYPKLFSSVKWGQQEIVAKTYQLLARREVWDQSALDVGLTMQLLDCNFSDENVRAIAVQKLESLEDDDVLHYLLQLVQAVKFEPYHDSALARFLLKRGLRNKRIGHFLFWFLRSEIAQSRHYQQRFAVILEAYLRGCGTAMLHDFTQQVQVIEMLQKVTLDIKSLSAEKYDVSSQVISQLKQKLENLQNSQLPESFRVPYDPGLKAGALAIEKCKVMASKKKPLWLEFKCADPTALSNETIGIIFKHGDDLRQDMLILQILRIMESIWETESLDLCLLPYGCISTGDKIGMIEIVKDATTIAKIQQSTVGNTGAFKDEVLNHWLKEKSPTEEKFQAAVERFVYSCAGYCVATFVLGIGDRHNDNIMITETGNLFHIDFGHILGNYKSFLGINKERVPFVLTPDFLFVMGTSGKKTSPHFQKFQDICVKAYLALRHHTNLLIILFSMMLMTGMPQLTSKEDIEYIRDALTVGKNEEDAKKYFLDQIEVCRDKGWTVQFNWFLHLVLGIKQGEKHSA
T2 sequence (P42336 whole entry): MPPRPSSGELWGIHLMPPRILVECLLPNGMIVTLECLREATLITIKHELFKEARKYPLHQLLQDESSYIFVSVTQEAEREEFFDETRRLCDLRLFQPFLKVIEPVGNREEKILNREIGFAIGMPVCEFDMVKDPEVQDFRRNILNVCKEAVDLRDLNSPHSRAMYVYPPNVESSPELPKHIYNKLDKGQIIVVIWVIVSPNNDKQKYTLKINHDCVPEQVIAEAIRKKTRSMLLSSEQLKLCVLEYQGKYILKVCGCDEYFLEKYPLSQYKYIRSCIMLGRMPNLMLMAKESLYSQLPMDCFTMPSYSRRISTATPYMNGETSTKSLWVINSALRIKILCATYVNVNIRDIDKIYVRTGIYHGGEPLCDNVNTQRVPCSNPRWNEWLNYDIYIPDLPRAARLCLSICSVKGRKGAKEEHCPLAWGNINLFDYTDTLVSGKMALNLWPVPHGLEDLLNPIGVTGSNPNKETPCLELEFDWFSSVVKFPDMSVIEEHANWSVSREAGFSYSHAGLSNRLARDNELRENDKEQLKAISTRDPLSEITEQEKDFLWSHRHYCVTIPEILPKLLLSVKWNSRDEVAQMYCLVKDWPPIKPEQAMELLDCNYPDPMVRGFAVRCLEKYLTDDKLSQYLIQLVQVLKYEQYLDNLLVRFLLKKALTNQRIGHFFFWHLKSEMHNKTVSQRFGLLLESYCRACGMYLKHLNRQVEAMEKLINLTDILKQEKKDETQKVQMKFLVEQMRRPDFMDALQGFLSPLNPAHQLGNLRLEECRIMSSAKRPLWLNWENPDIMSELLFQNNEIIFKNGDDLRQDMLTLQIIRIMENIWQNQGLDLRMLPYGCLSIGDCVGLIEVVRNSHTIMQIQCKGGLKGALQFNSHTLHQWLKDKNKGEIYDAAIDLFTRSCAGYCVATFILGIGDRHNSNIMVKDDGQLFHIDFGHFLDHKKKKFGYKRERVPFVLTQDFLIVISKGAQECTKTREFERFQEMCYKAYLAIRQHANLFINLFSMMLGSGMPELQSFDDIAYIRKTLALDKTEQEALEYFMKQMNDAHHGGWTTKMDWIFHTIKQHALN
T2 sequence (P27986 whole entry partner): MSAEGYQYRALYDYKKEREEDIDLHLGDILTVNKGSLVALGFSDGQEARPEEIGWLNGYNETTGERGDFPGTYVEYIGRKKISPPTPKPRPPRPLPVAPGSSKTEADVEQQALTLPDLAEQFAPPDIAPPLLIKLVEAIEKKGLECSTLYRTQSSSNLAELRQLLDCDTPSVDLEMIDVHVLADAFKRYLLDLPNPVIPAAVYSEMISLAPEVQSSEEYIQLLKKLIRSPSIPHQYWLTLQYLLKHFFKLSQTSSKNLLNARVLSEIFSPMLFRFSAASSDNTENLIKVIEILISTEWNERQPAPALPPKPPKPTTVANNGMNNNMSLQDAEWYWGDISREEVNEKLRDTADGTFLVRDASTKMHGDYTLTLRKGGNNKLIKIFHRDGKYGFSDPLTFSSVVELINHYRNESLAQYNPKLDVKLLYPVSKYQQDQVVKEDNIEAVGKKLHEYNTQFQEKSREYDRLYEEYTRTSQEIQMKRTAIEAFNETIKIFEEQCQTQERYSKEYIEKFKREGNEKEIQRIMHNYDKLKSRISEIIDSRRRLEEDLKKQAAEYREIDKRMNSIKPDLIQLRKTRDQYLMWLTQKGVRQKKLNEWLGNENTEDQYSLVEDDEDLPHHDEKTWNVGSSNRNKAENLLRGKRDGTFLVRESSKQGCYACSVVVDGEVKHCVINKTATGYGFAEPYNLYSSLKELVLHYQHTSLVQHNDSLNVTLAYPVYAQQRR
T3 sequence (O00329 whole entry): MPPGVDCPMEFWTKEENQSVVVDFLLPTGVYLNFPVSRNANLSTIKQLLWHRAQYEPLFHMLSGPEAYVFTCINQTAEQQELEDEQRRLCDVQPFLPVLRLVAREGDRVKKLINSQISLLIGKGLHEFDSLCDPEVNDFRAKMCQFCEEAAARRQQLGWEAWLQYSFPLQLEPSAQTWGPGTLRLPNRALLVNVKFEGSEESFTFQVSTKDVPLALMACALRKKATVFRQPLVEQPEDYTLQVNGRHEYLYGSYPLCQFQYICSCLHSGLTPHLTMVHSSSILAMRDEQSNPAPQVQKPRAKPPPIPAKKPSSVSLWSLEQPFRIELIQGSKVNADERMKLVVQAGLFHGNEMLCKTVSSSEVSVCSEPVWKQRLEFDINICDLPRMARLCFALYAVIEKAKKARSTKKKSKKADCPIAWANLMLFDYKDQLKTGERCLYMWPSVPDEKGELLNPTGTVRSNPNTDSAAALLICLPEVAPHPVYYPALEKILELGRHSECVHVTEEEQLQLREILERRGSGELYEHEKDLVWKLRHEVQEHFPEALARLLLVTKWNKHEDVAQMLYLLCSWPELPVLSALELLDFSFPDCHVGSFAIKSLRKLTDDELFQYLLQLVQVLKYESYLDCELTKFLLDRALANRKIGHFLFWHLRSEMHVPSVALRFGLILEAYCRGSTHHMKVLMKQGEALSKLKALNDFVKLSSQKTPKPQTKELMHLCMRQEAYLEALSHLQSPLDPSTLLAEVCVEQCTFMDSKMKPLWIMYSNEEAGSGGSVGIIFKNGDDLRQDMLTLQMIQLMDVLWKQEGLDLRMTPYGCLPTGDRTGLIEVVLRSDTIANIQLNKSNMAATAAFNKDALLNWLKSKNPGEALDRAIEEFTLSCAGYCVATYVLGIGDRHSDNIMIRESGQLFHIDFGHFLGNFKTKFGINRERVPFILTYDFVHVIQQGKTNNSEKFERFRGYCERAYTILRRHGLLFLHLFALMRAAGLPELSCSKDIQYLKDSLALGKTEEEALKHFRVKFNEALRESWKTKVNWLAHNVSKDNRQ
T3 sequence (P27986 whole entry partner): as the sequence (P27986 whole entry partner) above
T4 sequence (P42338 whole entry): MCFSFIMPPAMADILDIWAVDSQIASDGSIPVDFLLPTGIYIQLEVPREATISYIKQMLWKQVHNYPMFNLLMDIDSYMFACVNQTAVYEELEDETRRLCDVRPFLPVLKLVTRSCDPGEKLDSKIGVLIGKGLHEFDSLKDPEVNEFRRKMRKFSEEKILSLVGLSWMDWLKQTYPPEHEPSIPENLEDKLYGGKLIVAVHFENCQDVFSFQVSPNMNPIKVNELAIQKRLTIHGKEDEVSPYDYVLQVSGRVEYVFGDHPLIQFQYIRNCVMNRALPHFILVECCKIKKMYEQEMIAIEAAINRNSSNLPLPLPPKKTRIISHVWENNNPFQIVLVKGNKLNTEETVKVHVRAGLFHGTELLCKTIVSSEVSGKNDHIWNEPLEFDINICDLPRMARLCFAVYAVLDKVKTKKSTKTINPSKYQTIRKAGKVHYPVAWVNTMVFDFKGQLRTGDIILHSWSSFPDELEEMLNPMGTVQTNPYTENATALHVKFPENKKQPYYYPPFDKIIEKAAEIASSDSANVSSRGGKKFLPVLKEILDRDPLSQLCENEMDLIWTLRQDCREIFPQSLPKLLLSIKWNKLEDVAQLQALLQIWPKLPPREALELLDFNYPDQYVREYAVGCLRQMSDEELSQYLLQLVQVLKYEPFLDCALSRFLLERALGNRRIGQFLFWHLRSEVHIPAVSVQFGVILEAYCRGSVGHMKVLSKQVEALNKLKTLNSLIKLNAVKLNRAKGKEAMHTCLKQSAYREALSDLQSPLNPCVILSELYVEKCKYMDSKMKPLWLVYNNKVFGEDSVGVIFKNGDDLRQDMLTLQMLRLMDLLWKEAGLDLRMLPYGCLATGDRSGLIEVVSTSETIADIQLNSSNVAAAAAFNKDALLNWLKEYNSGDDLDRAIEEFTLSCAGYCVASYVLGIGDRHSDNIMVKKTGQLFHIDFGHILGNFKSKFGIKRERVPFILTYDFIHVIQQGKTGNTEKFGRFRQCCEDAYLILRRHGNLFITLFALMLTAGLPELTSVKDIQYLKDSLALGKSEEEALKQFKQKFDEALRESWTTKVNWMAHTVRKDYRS
T4 sequence (P27986 whole entry partner): as the sequence (P27986 whole entry partner) above

Structure (SMILES): C[C@H](Nc1ncnc2[nH]cnc12)c1cc2cccc(Cl)c2c(C(=O)NC2CCOCC2)n1 [Compound 48]
IC50 [1]: < 10 µM
IC50 [2]: > 10 µM
IC50 [3]: < 0.1 µM
IC50 [4]: > 10 µM

Structure (SMILES): C[C@H](Nc1ncnc2[nH]cnc12)c1cc2cc(F)ccc2c(CCN2CCOCC2)n1 [Compound 55]
IC50 [1]: > 10 µM
IC50 [2]: > 10 µM
IC50 [3]: < 1 µM
IC50 [4]: > 10 µM

Structure (SMILES): C[C@H](Nc1ncnc2[nH]cnc12)c1cc2cccc(Cl)c2c(C(=O)NC2CCC(O)CC2)n1 (stereo partly drawn) [Compound 58]
IC50 [1]: < 10 µM
IC50 [2]: > 10 µM
IC50 [3]: < 0.1 µM
IC50 [4]: > 10 µM

Structure (SMILES): C[C@H](Nc1ncnc2scnc12)c1cc2cccc(Cl)c2c(CCN2CCOCC2)n1 [Compound 72, (S)—N-(1-(8-chloro-1-(2-morpholinoethyl)isoquinolin-3-yl)ethyl)thiazolo[5,4-d]pyrimidin-7-amine]
IC50 [1]: < 10 µM
IC50 [2]: < 10 µM
IC50 [3]: < 0.1 µM
IC50 [4]: < 1 µM

Structure (SMILES): C[C@H](Nc1cc(Cl)nn2ccnc12)c1cc2cccc(Cl)c2c(CCN2CCOCC2)n1 [Compound 76, (S)-6-chloro-N-(1-(8-chloro-1-(2-morpholinoethyl)isoquinolin-3-yl)ethyl)imidazo[1,2-b]pyridazin-8-amine]
IC50 [1]: > 10 µM
IC50 [2]: > 10 µM
IC50 [3]: < 10 µM
IC50 [4]: > 10 µM

Structure (SMILES): C[C@H](Nc1cc(Cl)nn2ccnc12)c1cc2ccccc2c(CCN2CCOCC2)n1 [Compound 78]
IC50 [1]: > 10 µM
IC50 [2]: > 10 µM
IC50 [3]: < 10 µM
IC50 [4]: > 10 µM

Structure (SMILES): C[C@H](Nc1ncnc2[nH]cnc12)c1nc(CCN2CCOCC2)c2ccccc2c1F [Compound 87]
IC50 [1]: > 10 µM
IC50 [2]: > 10 µM
IC50 [3]: < 1 µM
IC50 [4]: > 10 µM

Structure (SMILES): C[C@H](Nc1ncnc2[nH]cnc12)c1cc2cccc(Cl)c2c(OCC(C)(C)O)n1 [Compound 88]
IC50 [1]: < 10 µM
IC50 [2]: < 10 µM
IC50 [3]: < 1 µM
IC50 [4]: < 10 µM

Structure (SMILES): C[C@H](NC(=O)c1nccnc1N)c1cc2cccc(Cl)c2c(CCN2CCOCC2)n1 [Compound 89, (S)-3-amino-N-(1-(8-chloro-1-(2-morpholinoethyl)isoquinolin-3-yl)ethyl)pyrazine-2-carboxamide]
IC50 [1]: < 10 µM
IC50 [2]: > 10 µM
IC50 [3]: < 1 µM
IC50 [4]: < 10 µM

Structure (SMILES): C[C@H](Nc1ccnc2ccnn12)c1cc2cccc(Cl)c2c(N2CCN(C)CC2)n1 [Compound 97]
IC50 [1]: > 10 µM
IC50 [2]: > 10 µM
IC50 [3]: < 0.1 µM
IC50 [4]: < 10 µM

Structure (SMILES): C[C@H](Nc1ncnc2[nH]cnc12)c1cc2cccc(F)c2c(N2CCN(C)CC2)n1 [Compound 100]
IC50 [1]: > 10 µM
IC50 [2]: > 10 µM
IC50 [3]: < 0.1 µM
IC50 [4]: > 10 µM

Structure (SMILES): C[C@H](Nc1ccnc2ccnn12)c1cc2cccc(Cl)c2c(OCCN2CCCC2)n1 [Compound 106]
IC50 [1]: < 10 µM
IC50 [2]: > 10 µM
IC50 [3]: < 0.1 µM
IC50 [4]: < 10 µM

Structure (SMILES): Cc1cccc2cc([C@H](C)Nc3ncnc4[nH]cnc34)nc(N3CCN(C)CC3)c12 [Compound 109]
IC50 [1]: < 10 µM
IC50 [2]: > 10 µM
IC50 [3]: < 0.1 µM
IC50 [4]: < 10 µM

Structure (SMILES): C[C@H](Nc1ncnc2[nH]cnc12)c1cc2cccc(C(F)(F)F)c2c(N2CCN(C)CC2)n1 [Compound 111]
IC50 [1]: < 10 µM
IC50 [2]: > 10 µM
IC50 [3]: < 1 µM
IC50 [4]: < 10 µM

Structure (SMILES): C[C@H](NC(=O)c1cnc2cccnn12)c1cc2cccc(Cl)c2c(C(=O)N2CCOCC2)n1 [Compound 117]
IC50 [1]: < 10 µM
IC50 [2]: > 10 µM
IC50 [3]: < 1 µM
IC50 [4]: < 10 µM

Structure (SMILES): C[C@H](NC(=O)c1nccnc1N)c1cc2cccc(Cl)c2c(C(=O)N2CCOCC2)n1 [Compound 118]
IC50 [1]: < 10 µM
IC50 [2]: > 10 µM
IC50 [3]: < 1 µM
IC50 [4]: < 10 µM

Structure (SMILES): C[C@H](Nc1ncnc2[nH]cnc12)c1cc2cccc(Cl)c2c(C(=O)N(C)C2CCOCC2)n1 [Compound 126]
IC50 [1]: < 10 µM
IC50 [2]: > 10 µM
IC50 [3]: < 1 µM
IC50 [4]: > 10 µM

Structure (SMILES): C[C@H](Nc1nc(N)ncc1C(F)(F)F)c1cc2cccc(Cl)c2c(CCN2CCOCC2)n1 [Compound 130]
IC50 [1]: < 10 µM
IC50 [2]: > 10 µM
IC50 [3]: < 0.1 µM
IC50 [4]: < 10 µM

Structure (SMILES): C[C@H](Nc1ncnc2[nH]cnc12)c1cc2cccc(Cl)c2c(S(=O)(=O)CCN2CCOCC2)n1 [Compound 134]
IC50 [1]: > 10 µM
IC50 [2]: > 10 µM
IC50 [3]: < 1 µM
IC50 [4]: > 10 µM

Structure (SMILES): CNC(=O)NCCOc1nc([C@H](C)Nc2ncnc3[nH]cnc23)cc2cccc(Cl)c12 [Compound 139]
IC50 [1]: < 10 µM
IC50 [2]: > 10 µM
IC50 [3]: < 1 µM
IC50 [4]: < 10 µM

Structure (SMILES): C[C@H](Nc1ncnc2scnc12)c1cc2cccc(Cl)c2c(C(=O)N2CCOC[C@H]2C)n1 [Compound 252]
IC50 [1]: < 10 µM

Now from value to compound:

IC50 [1]: < 10 µM
IC50 [2]: > 10 µM
IC50 [3]: < 1 µM
IC50 [4]: < 10 µM
Structure (SMILES): C[C@H](Nc1ncnc2[nH]cnc12)c1cc2cccc(Cl)c2c(CN2CCC2)n1 [Compound 9]

IC50 [1]: < 1 µM
IC50 [2]: > 10 µM
IC50 [3]: < 0.1 µM
IC50 [4]: < 10 µM
Structure (SMILES): C[C@H](Nc1ncnc2[nH]cnc12)c1cc2cccc(Cl)c2c(C(=O)N2CC(O)C2)n1 [Compound 22]

IC50 [1]: < 10 µM
IC50 [2]: > 10 µM
IC50 [3]: < 1 µM
IC50 [4]: > 10 µM
Structure (SMILES): C[C@H](Nc1ncnc2[nH]cnc12)c1cc2cccc(Cl)c2c(C(=O)N(C)c2ccccc2)n1 [Compound 27]

IC50 [1]: < 1 µM
IC50 [2]: > 10 µM
IC50 [3]: < 0.1 µM
IC50 [4]: > 10 µM
Structure (SMILES): C[C@H](Nc1ncnc2[nH]cnc12)c1cc2cccc(Cl)c2c(C(=O)N2CCC(O)CC2)n1 [Compound 28]

IC50 [1]: < 10 µM
IC50 [2]: > 10 µM
IC50 [3]: < 1 µM
IC50 [4]: < 10 µM
Structure (SMILES): Cc1nc(-c2nc([C@H](C)Nc3ncnc4[nH]cnc34)cc3cccc(Cl)c23)no1 [Compound 32]

IC50 [1]: < 10 µM
IC50 [2]: > 10 µM
IC50 [3]: < 1 µM
IC50 [4]: > 10 µM
Structure (SMILES): C[C@H](Nc1ncnc2[nH]cnc12)c1cc2cccc(Cl)c2c(CC(=O)N2CCOCC2)n1 [Compound 35]

IC50 [1]: < 1 µM
IC50 [2]: < 10 µM
IC50 [3]: < 0.1 µM
IC50 [4]: < 10 µM
Structure (SMILES): C[C@H](Nc1ncnc2[nH]cnc12)c1cc2cccc(Cl)c2c(SCC[N+]2([O-])CCOCC2)n1 [Compound 94]

IC50 [1]: < 0.1 µM
IC50 [2]: < 1 µM
IC50 [3]: < 0.1 µM
IC50 [4]: < 1 µM
Structure (SMILES): C[C@H](Nc1ncnc2cccnc12)c1cc2cccc(Cl)c2c(N2CCN(C)CC2)n1 [Compound 96]

IC50 [1]: < 1 µM
IC50 [2]: < 1 µM
IC50 [3]: < 0.1 µM
IC50 [4]: < 10 µM
Structure (SMILES): C[C@H](Nc1ncnc2cccnc12)c1cc2cccc(Cl)c2c(OCCN2CCCC2)n1 [Compound 105]

IC50 [1]: < 1 µM
IC50 [2]: < 10 µM
IC50 [3]: < 0.1 µM
IC50 [4]: < 10 µM
Structure (SMILES): C[C@H](Nc1ncnc2cccnc12)c1cc2cccc(Cl)c2c(C(=O)N2CCOCC2)n1 [Compound 115]

IC50 [1]: < 1 µM
IC50 [2]: > 10 µM
IC50 [3]: < 10 µM
IC50 [4]: > 10 µM
Structure (SMILES): C[C@H](Nc1ncnc2[nH]cnc12)c1cc2cccc(Cl)c2c(OCC(=O)O)n1 [Compound 128, (S)-2-(3-(1-(9H-purin-6-ylamino)ethyl)-8-chloroisoquinolin-1-yloxy)acetic acid]

IC50 [1]: < 1 µM
Structure (SMILES): C[C@H](Nc1ncnc2cccnc12)c1cc2cccc(Cl)c2c(C(=O)N2CCOC[C@H]2C)n1 [Compound 251]
